Test [1] has as its system MLKL translocation in transfected THP-1 cells. Briefly: Flag-MLKL translocation to cell membrane, immunofluorescent staining, confocal microscopy. It counts as cell-based, human. To be noted: transfected THP-1 cells stimulated with compound and TBZ, FIG. 3. Here is the method:
A human monocyte cell line THP-1 and a human colon cancer cell line HT-29 were maintained in a 10% FBS-Roswell Park Memorial Institute (RPMI) 1640 medium supplemented with 2 mM L-glutamine, 100 U/ml penicillin, and 100 μg/ml streptomycin at 37° C. under a 5% CO2 condition. The THP-1 cells were differentiated into macrophages in an RPMI 1640 medium containing 500 nM Phorbol 12-myristate 13-acetate (PMA) for 3 hours. Human mixed lineage kinase domain-like protein (MLKL)-flag plasmid (Sino Biological, HG12810-CF) transfection was performed using the electroporation system (Invitrogen) of MicroPorator-mini (Digital Bio).
Cells were seeded on cell culture-treated glass chamber slides. The cells were pretreated with Z-VAD, BV6, and the indicated compound for 1 hour, and then treated with TNF-α and BV6 overnight. Subsequently, the cells were washed with phosphate-buffered saline (PBS) and fixed in 4% paraformaldehyde for 10 minutes. Before incubation for 10 minutes in 0.25% Triton X-100 in PBS, the cells were washed three more times with PBS. The cells were blocked with 5% bovine serum albumin (BSA) in PBS for 30 minutes and stained using an anti-Flag (Sigma, F7425-2MG) antibody. The nuclei were stained with DAPI (Invitrogen, 00-4959-52). Images were captured using a confocal microscope (Olympus, FV1000). […]

The target of test [2] is T1, MLKL N-term domain (amino acids 1-154) (Homo sapiens, UniProt Q8NB16).
T1 construct: MLKL N-term (amino acids 1-154) protein that had been purified in a laboratory; made in house
T1 sequence (Q8NB16 1-154): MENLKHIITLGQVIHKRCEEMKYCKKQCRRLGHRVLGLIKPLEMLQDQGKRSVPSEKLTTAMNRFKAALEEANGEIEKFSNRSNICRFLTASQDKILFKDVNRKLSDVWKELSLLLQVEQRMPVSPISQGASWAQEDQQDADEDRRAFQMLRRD
Briefly: Surface plasmon resonance (SPR) analysis, binding to MLKL N-term domain. The settings on record: MLKL N-term domain immobilized on CM5 chip, Biacore T200, 25° C., 10 mM HEPES pH 7.4. Here is the method: The interaction between MLKL and apomorphine (=APO) was detected through surface plasmon resonance (SPR) analysis using Biacore T200 (GE Healthcare). For pH scouting, a buffer consisting of 10 mM sodium acetate (pH 4.0 to 6.0) was used. MLKL protein (Abcam, ab241453), and MLKL N-term (amino acids 1-154) protein that had been purified in a laboratory were immobilized on the surface of a sensor chip CM5 (GE Healthcare) under scouted buffer conditions. To deduce an Rligand value, a coupling process was performed based on the molecular weights of MLKL, MLKL N-term domain (MW ligand), and APO (MW analyte). Oxidized (24 hr, RT incubation) and reduced (+DTT(DL-dithiothreitol)) forms of APO were injected into a running buffer (flow rate: 10 μl/min) consisting of 10 mM HEPES (pH 7.4) at 25° C. A sensorgram was recorded and analyzed in real time using control software provided by the Biacore T200 system itself. Six or more concentrations of APO were used in combination, and each KD value was derived. All run data was calculated using BIAevaluation Software (GE Healthcare).
SPR analysis was used to analyze the interaction pattern between APO and the MLKL protein (Experimental Method 1-10). […] Here, the analysis was performed by binding MLKL and the MLKL N-term domain protein immobilized on a CM5 chip with APO having six concentrations.
For orientation: In SPR one partner is held on a chip, and binding of the other changes the refractive index at the surface.

In test [3] the test system is MLKL phosphorylation. Briefly: Western blotting for MLKL phosphorylation in TBZ+APO-treated cells. It counts as cell-based, human. To be noted: TBZ+APO-treated THP-1 cells, FIG. 1B. Here is the method:
Cells were pretreated with Z-VAD (invivoGen, tlrl-vad) and a compound for 1 hour, and necroptosis was induced with TNF-α (ATGen, TNF0501) and BV6 (Biovision, B1332-5) for the indicated time. The prepared cells were appropriately treated according to analysis (Z-VAD: carbobenzoxy-valyl-alanyl-aspartyl, TNF-α: tumor necrosis factor-α, BV6: 4,4′-(1,6-hexanediyl)bis[N-methyl-L-alanyl-(2S)-2-cyclohexylglycyl-L-prolyl-β-phenyl-L-phenylalaninamide)
(§1) Cells were treated with a drug candidate and then collected using centrifugation at 4° C. and 1,500×g for 5 minutes. A supernatant was centrifuged again at 4° C. and 1,500×g for 5 minutes to remove remaining debris, concentrated at 4° C. and 14,000×g for 30 minutes using Amicon ultra-0.5 centrifugal filter unit 10K (Millipore, UFC501096), and stored. The collected cells were lysed using 1× radioimmunoprecipitation assay (RIPA) buffer (GenDEPOT, R4100-010) containing a 1× protease inhibitor (GenDEPOT, P3100-001) and a phosphatase inhibitor (Thermo Fisher Scientific, 1862495). Subsequently, the cell lysate was centrifuged at 4° C. and 20,000×g for 30 minutes to remove debris. The extracted protein concentration was measured using a bicinchoninic acid (BCA) protein assay kit (Thermo Fisher Scientific, 23225). […]
On the technique in general: A western blot detects proteins with antibodies after separation by electrophoresis.

In test [4] the test system is HMGB1 secretion. Description: HMGB1 secretion into supernatant of TBZ-treated THP-1 cells, Western blotting. The class given is cell-based, human. To be noted: APO 1, 5, 20, 80, or 320 μM for 8 hours, vs TBZ only-treated group, FIG. 4. Here is the method:
as §1
To test whether secretion of HMGB1, a representative damage-associated molecular pattern, which is one of the characteristics of necroptosis, is inhibited by treating THP-1 cells with necroptosis induced by TBZ treatment with APO, after concentration-dependent treatment (1, 5, 20, 80, or 320 μM) with APO for 8 hours, all of the supernatant was concentrated, analyzed by SDS-PAGE, and investigated with an HMGB1 antibody (Experimental Method 1-6). […]

As a reminder, the Kd is the constant that tells how readily two partners part at equilibrium. Turning to `CN1CCc2cccc3c2[C@H]1Cc1ccc(O)c(O)c1-3` [APO, apomorphine], in test [1], the “distribution of Flag-MLKL signals” value is recorded as “mostly distributed in the cytoplasm”. In test [2], the Kd was determined as 62.5 nM. Also, in test [3], the MLKL phosphorylation entry is on record as “did not inhibit”. The “amount of HMGB1 secreted into the supernatant” value in test [4] is reported as “decreased”.

The values above are taken from patent US20250000855A1, “USE OF APOMORPHINE AS THERAPEUTIC AGENT FOR NECROPTOSIS-RELATED DISEASES” (INDUSTRY-ACADEMIC COOPERATION FOUNDATION, YONSEI UNIVERSITY, priority 2021, published 2025).
